Legend:
[1] = test system: MDA-MB-435; assay: In vivo percent T/C against MDA-MB-435 human breast carcinoma cells implanted sc in mice at a dose 26 umol/kg; assay type: functional
[2] = test system: MDA-MB-435; assay: (§1) Antiproliferative activity against MDA-MB-435 human breast carcinoma cells in vitro using MDA-MB-435 monolayer growth assay.; assay type: functional, cell-based
[3] = test system: MDA-MB-435; assay: In vivo percent T/C against MDA-MB-435 human breast carcinoma cells implanted sc in mice at a dose 52 umol/Kg; assay type: functional
[4] = test system: MDA-MB-435; assay: In vivo for percent body weight against MDA-MB-435 human breast carcinoma cells implanted sc in mice at a dose 26 umol/kg; assay type: functional
[5] = test system: MDA-MB-435; assay: In vivo for percent body weight against MDA-MB-435 human breast carcinoma cells implanted sc in mice at a dose 52 umol/Kg; assay type: functional
[6] = test system: MDA-MB-435; assay: In vivo percent T/C against MDA-MB-435 human breast carcinoma cells implanted sc in mice at a dose 10 umol/kg; assay type: functional
[7] = test system: MDA-MB-435; assay: as §1; assay type: functional
[8] = test system: MDA-MB-435; assay: In vivo percent T/C against MDA-MB-435 human breast carcinoma cells implanted sc in mice at a dose 33 umol/Kg; assay type: functional
[9] = test system: MDA-MB-435; assay: In vivo percent body weight versus MDA-MB-435 human breast carcinoma cells implanted sc in mice at a dose 10 umol/kg; assay type: functional
[10] = test system: MDA-MB-435; assay: In vivo percent body weight versus MDA-MB-435 human breast carcinoma cells implanted sc in mice at a dose 33 umol/Kg; assay type: functional
[11] = test system: MDA-MB-435; assay: In vivo percent T/C against MDA-MB-435 human breast carcinoma cells implanted sc in mice at a dose 100 umol/kg; assay type: functional
[12] = test system: MDA-MB-435; assay: In vivo for percent body weight against MDA-MB-435 human breast carcinoma cells implanted sc in mice at a dose 100 umol/Kg; assay type: functional
[13] = test system: MDA-MB-435; assay: In vivo for percent body weight against MDA-MB-435 human breast carcinoma cells implanted sc in mice at a dose m100 umol/Kg; assay type: functional
[14] = test system: MDA-MB-435; assay: In vivo percent T/C against MDA-MB-435 human breast carcinoma cells implanted sc in mice at a dose 100 umol/Kg; assay type: functional
[15] = test system: MDA-MB-435; assay: In vivo percent T/C against MDA-MB-435 human breast carcinoma cells implanted sc in mice at a dose 279 umol/Kg; assay type: functional
[16] = test system: MDA-MB-435; assay: In vivo percent T/C against MDA-MB-435 human breast carcinoma cells implanted sc in mice at a dose 84 umol/Kg; assay type: functional
[17] = test system: MDA-MB-435; assay: In vivo for percent body weight against MDA-MB-435 human breast carcinoma cells implanted sc in mice at a dose 279 umol/Kg; assay type: functional
[18] = test system: MDA-MB-435; assay: In vivo for percent body weight against MDA-MB-435 human breast carcinoma cells implanted sc in mice at a dose 28 umol/kg; assay type: functional
[19] = test system: MDA-MB-435; assay: In vivo for percent body weight against MDA-MB-435 human breast carcinoma cells implanted sc in mice at a dose 84 umol/kg; assay type: functional
[20] = test system: MDA-MB-435; assay: In vivo percent T/C against MDA-MB-435 human breast carcinoma cells implanted sc in mice at a dose 28 umol/kg; assay type: functional
[21] = test system: MDA-MB-435; assay: In vivo for percent body weight against MDA-MB-435 human breast carcinoma cells implanted sc in mice at a dose 2 umol/kg; assay type: functional
[22] = test system: MDA-MB-435; assay: In vivo percent T/C against MDA-MB-435 human breast carcinoma cells implanted sc in mice at a dose 2 umol/kg; assay type: functional

CO[C@@H](C(=O)NC1CC[C@H](O)CN(C)C1=O)[C@H](O)[C@@H](O)[C@H](O)/C=C/C(C)C (stereo partly specified)
T/C [1]: 42% | IC50 [2]: 2900 nM | T/C [3]: 41% | Body weight [4]: 9.5% | Body weight [5]: 0.8%

CO[C@@H](C(=O)NC1CC[C@@H](OC(=O)C2CCCCCC2)CNC1=O)[C@H](O)[C@@H](O)[C@H](O)/C=C/C(C)(C)C (stereo partly specified)
T/C [6]: <39% | IC50 [7]: 20 nM | T/C [8]: <28% | Body weight [9]: 10.1% | Body weight [10]: 8.4%

CO[C@@H](C(=O)NC1CC[C@@H](OC(=O)C2CCCCC2)CNC1=O)[C@H](O)[C@@H](O)[C@H](O)/C=C/C(C)(C)C (stereo partly specified)
T/C [11]: <29% | T/C [6]: <58% | IC50 [7]: 4 nM | T/C [8]: <7% | Body weight [12]: -2.6% | Body weight [9]: 10.5% | Body weight [10]: 3.5%

CO[C@@H](C(=O)NC1CC[C@@H](OC(=O)CCc2ccccc2)CNC1=O)[C@H](O)[C@@H](O)[C@H](O)/C=C/C(C)(C)C (stereo partly specified)
T/C [6]: <53% | IC50 [7]: 10 nM | T/C [8]: <12% | Body weight [9]: 6% | Body weight [10]: 5.3% | Body weight [13]: -3.1% | T/C [14]: <58%

CO[C@@H](C(=O)NC1CCCCN(C)C1=O)[C@H](O)[C@@H](O)[C@H](O)/C=C/C(C)C (stereo partly specified)
IC50 [2]: 2900 nM

CCCCCCCCCCCCCOC(=O)[C@H]1CCC(NC(=O)[C@H](OC)[C@H](O)[C@@H](O)[C@H](O)/C=C/C(C)C)C(=O)NC1 (stereo partly specified)
IC50 [2]: 1 nM

CO[C@@H](C(=O)NC1CC[C@@H](OC(=O)Cc2cccnc2)CNC1=O)[C@H](O)[C@@H](O)[C@H](O)/C=C/C(C)(C)C (stereo partly specified)
T/C [6]: 69% | IC50 [7]: 5850 nM | T/C [8]: 82% | Body weight [9]: 6.4% | Body weight [10]: 6.8%

CO[C@@H](C(=O)NC1CC[C@@H](OC(=O)CCc2cccnc2)CNC1=O)[C@H](O)[C@@H](O)[C@H](O)/C=C/C(C)(C)C (stereo partly specified)
T/C [6]: 92% | IC50 [7]: 460 nM | T/C [8]: <44% | Body weight [9]: 10.1% | Body weight [10]: 3%

CCCCCCCCCCc1ccc(C(=O)O[C@@H]2CCC(NC(=O)[C@H](OC)[C@H](O)[C@@H](O)[C@H](O)/C=C/C(C)(C)C)C(=O)NC2)cc1 (stereo partly specified)
T/C [6]: 76% | IC50 [7]: 30 nM | T/C [8]: <6% | Body weight [9]: 6% | Body weight [10]: 2.6%

CO[C@@H](C(=O)NC1CC[C@@H](OC(=O)c2ccccc2)CNC1=O)[C@H](O)[C@@H](O)[C@H](O)/C=C/C(C)(C)C (stereo partly specified)
T/C [6]: 93% | IC50 [7]: 370 nM | T/C [8]: 80% | Body weight [9]: 5.5% | Body weight [10]: 5.6%

CCCCCc1ccc(C(=O)O[C@@H]2CCC(NC(=O)[C@H](OC)[C@H](O)[C@@H](O)[C@H](O)/C=C/C(C)(C)C)C(=O)NC2)cc1 (stereo partly specified)
T/C [6]: 111% | IC50 [7]: 20 nM | T/C [8]: 91% | Body weight [9]: 6% | Body weight [10]: 2.6%

CO[C@@H](C(=O)NC1CC[C@@H](OC(=O)C2CCCC2)CNC1=O)[C@H](O)[C@@H](O)[C@H](O)/C=C/C(C)(C)C (stereo partly specified)
T/C [6]: 67% | IC50 [7]: 130 nM | T/C [8]: <13% | Body weight [9]: 7.6% | Body weight [10]: 3%

CO[C@@H](C(=O)NC1CC[C@@H](OC(=O)/C=C/c2ccccc2)CNC1=O)[C@H](O)[C@@H](O)[C@H](O)/C=C/C(C)(C)C (stereo partly specified)
T/C [6]: <64% | IC50 [7]: 20 nM | T/C [8]: <63% | Body weight [9]: 7.4% | Body weight [10]: 7.5%

CCCCCCCCCCCCCC(=O)O[C@H]1CCC(NC(=O)[C@H](OC)[C@H](O)[C@@H](O)[C@H](O)/C=C/C(C)(C)C)C(=O)N(C)C1 (stereo partly specified)
T/C [6]: <58% | IC50 [7]: 10 nM | T/C [8]: <46% | Body weight [9]: 6.1% | Body weight [10]: 6.4%

CCCCCCCCCCOc1ccc(C(=O)O[C@@H]2CCC(NC(=O)[C@H](OC)[C@H](O)[C@@H](O)[C@H](O)/C=C/C(C)(C)C)C(=O)NC2)cc1 (stereo partly specified)
T/C [6]: <64% | IC50 [7]: 10 nM | T/C [8]: 2% | Body weight [9]: 8.8% | Body weight [10]: -0.9%

CO[C@@H](C(=O)NC1CC[C@@H](OC(=O)CC2CCCCC2)CNC1=O)[C@H](O)[C@@H](O)[C@H](O)/C=C/C(C)(C)C (stereo partly specified)
T/C [6]: <47% | IC50 [7]: 60 nM | T/C [8]: <34% | Body weight [9]: 4.6% | Body weight [10]: 3.5%

CO[C@@H](C(=O)NC1CC[C@@H](OC(=O)Cc2ccccc2)CNC1=O)[C@H](O)[C@@H](O)[C@H](O)/C=C/C(C)(C)C (stereo partly specified)
T/C [6]: 72% | IC50 [7]: 260 nM | T/C [8]: <43% | Body weight [9]: 10.6% | Body weight [10]: 3.9%

CCCCCCCCCCCCCC(=O)O[C@@H]1CCC(NC(=O)[C@H](OC)[C@H](O)[C@@H](O)[C@H](O)/C=C/C(C)(C)C)C(=O)NC1 (stereo partly specified)
T/C [6]: <41% | IC50 [7]: < 10 nM | T/C [8]: <4% | Body weight [9]: 7.4% | Body weight [10]: 5.7%

CO[C@@H](C(=O)NC1CCCCNC1=O)[C@H](O)[C@@H](O)[C@H](O)/C=C/C(C)C (stereo partly specified)
T/C [15]: <19% | IC50 [2]: 3300 nM | T/C [16]: 62% | Body weight [17]: 6.7% | Body weight [18]: 8.4% | Body weight [19]: 7.1% | T/C [20]: 62%

COc1cccc2c1C(=O)c1c(O)c3c(c(O)c1C2=O)C[C@@](O)(C(=O)CO)C[C@@H]3O[C@H]1C[C@H](N)[C@H](O)[C@H](C)O1 [DOXORUBICIN]
IC50 [7]: 400 nM | Body weight [21]: 3.9% | T/C [22]: <44%

Source: ChEMBL document CHEMBL1134665, “Synthesis and antitumor activity of ester-modified analogues of bengamide B” (J Med Chem, 2001)
